Reference: patent US6274715A, “Tricyclic erythromycin derivatives” (priority 1997, dated 2001)
Values after ≈ are worked out from the molar mass of the structure shown.

Columns and labels:
Format in all cases: cell-based
[1] = tested on: STAPHYLOCOCCUS AUREUS A-5278; assay: In vitro antibacterial activity, MIC, BHI agar dilution; conditions: S. aureus A-5278, unit assumed
[2] = tested on: ESCHERICHIA COLI DC-2; assay: as above; conditions: E. coli DC-2, unit assumed
[3] = tested on: STAPHYLOCOCCUS AUREUS CMX 642A; assay: as above; conditions: S. aureus CMX 642A, unit assumed
[4] = tested on: ESCHERICHIA COLI H560; assay: as above; conditions: E. coli H560, unit assumed
[5] = tested on: STR[…] 508; assay: as above; conditions: S. agalactiae CMX 508, unit assumed
Procedure: (§1) Representative compounds of the present invention were assayed in vitro for antibacterial activity as follows: Twelve petri dishes containing successive aqueous dilutions of the test compound mixed with 10 mL of sterilized Brain Heart Infusion (BHI) agar (Difco 0418-01-5) were prepared. Each plate was inoculated with 1:100 (or 1:10 for slow-growing strains, such as Micrococcus and Streptococcus) dilutions of up to 32 different microorganisms, using a Steers replicator block. The inoculated plates were incubated at 35-37° C. for 20 to 24 hours. In addition, a control plate, using BHI agar containing no test compound, was prepared and incubated at the beginning and end of each test.
(§2) An additional plate containing a compound having known susceptibility patterns for the organisms being tested and belonging to the same antibiotic class as the test compound was also prepared and incubated as a further control, as well as to provide test-to-test comparability. Erythromycin A was used for this purpose.
(§3) After incubation, each plate was visually inspected. The minimum inhibitory concentration (MIC) was defmed as the lowest concentration of drug yielding no growth, a slight haze, or sparsely isolated colonies on the inoculum spot as compared to the growth control.

[6] = tested on: M[…] ATCC 4698; assay: as above; conditions: M. luteus ATCC 4698, unit assumed
Procedure: as §1, §2, §3

[7] = tested on: M[…] ATCC 9341; assay: as above; conditions: M. luteus ATCC 9341, unit assumed
Procedure: as §1, §2, §3

[8] = tested on: EN[…] ATCC 8043; assay: as above; conditions: E. faecium ATCC 8043, unit assumed
Procedure: as §1, §2, §3

[9] = tested on: STAPHYLOCOCCUS EPIDERMIDIS 3519; conditions: S. epidermidis 3519; BHI agar; unit assumed
[10] = tested on: PSEUDOMONAS AERUGINOSA DPHD-2862; assay: In vitro antibacterial activity, MIC, BHI agar dilution; conditions: P. aeruginosa DPHD-2862, unit assumed
[11] = tested on: ESCHERICHIA COLI KNK 437; conditions: E. coli KNK 437; BHI agar; unit assumed
[12] = tested on: STAPHYLOCOCCUS AUREUS CMX 553; assay: In vitro antibacterial activity, MIC, BHI agar dilution; conditions: S. aureus CMX 553, unit assumed
[13] = tested on: CANDIDA ALBICANS CCH 442; assay: as above; conditions: C. albicans CCH 442, unit assumed
[14] = tested on: STREPTOCOCCUS PYOGENES 930; assay: as above; conditions: S. pyogenes 930, unit assumed
[15] = tested on: PSEUDOMONAS AERUGINOSA BMH10; assay: as above; conditions: P. aeruginosa BMH10, unit assumed
[16] = tested on: ESCHERICHIA COLI JUHL; conditions: E. coli JUHL; BHI agar; unit assumed
[17] = tested on: PSEUDOMONAS AERUGINOSA K799/WT; assay: In vitro antibacterial activity, MIC, BHI agar dilution; conditions: P. aeruginosa K799/WT, unit assumed
[18] = tested on: PSEUDOMONAS AERUGINOSA DPHD-5263; assay: as above; conditions: P. aeruginosa DPHD-5263, unit assumed
[19] = tested on: STAPHYLOCOCCUS AUREUS A5177; assay: as above; conditions: S. aureus A5177, unit assumed
[20] = tested on: PSEUDOMONAS AERUGINOSA 5007; assay: as above; conditions: P. aeruginosa 5007, unit assumed
[21] = tested on: STAPHYLOCOCCUS AUREUS ATCC 6538P; assay: as above; conditions: S. aureus ATCC 6538P, 35-37° C., 20 to 24 hours, unit assumed
[22] = tested on: STAPHYLOCOCCUS AUREUS 1775; assay: as above; conditions: S. aureus 1775, unit assumed
[23] = tested on: PROVIDENCIA STUARTII CMX 640; conditions: P. stuartii CMX 640; BHI agar; unit assumed
[24] = tested on: STREPTOCOCCUS PYOGENES EES61; assay: In vitro antibacterial activity, MIC, BHI agar dilution; conditions: S. pyogenes EES61, unit assumed
[25] = tested on: PSEUDOMONAS CEPACIA 296I; assay: as above; conditions: P. cepacia 296I, unit assumed
[26] = tested on: STAPHYLOCOCCUS AUREUS NCTC10649M; assay: as above; conditions: S. aureus NCTC10649M, unit assumed
[27] = tested on: ENTEROBACTER AEROGENES ATCC 13048; assay: as above; conditions: E. aerogenes ATCC 13048, unit assumed
[28] = tested on: PSEUDOMONAS AERUGINOSA K799/61; assay: as above; conditions: P. aeruginosa K799/61, unit assumed
[29] = tested on: MYCOBACTERIUM SMEGMATIS ATCC 114; assay: as above; conditions: M. smegmatis ATCC 114, unit assumed
[30] = tested on: STREPTOCOCCUS BOVIS A-5169; assay: as above; conditions: S. bovis A-5169, unit assumed
[31] = tested on: KLEBSIELLA PNEUMONIAE ATCC 8045; assay: as above; conditions: K. pneumoniae ATCC 8045, unit assumed
[32] = tested on: ESCHERICHIA COLI SS; assay: as above; conditions: E. coli SS, unit assumed

SMILES	MIC [1]	MIC [2]	MIC [3]	MIC [4]	MIC [5]	MIC [6]	MIC [7]	MIC [8]	MIC [9]	MIC [10]	MIC [11]	MIC [12]	MIC [13]	MIC [14]	MIC [15]	MIC [16]	MIC [17]	MIC [18]	MIC [19]	MIC [20]	further results
CC[C@H]1OC(=O)[C@H](C)C(=O)[C@H](C)[C@@H](O[C@@H]2O[C@H](C)C[C@H](N(C)C)[C@H]2O)[C@](C)(OC)C[C@@H](C)C2=N[C@H](Cc3ccccc3)CN3C(=O)O[C@@]1(C)[C@H]3[C@H]2C [Example 3]	> 100 µg/mL	> 100 µg/mL	0.39 µg/mL (≈ 0.536 µM)	> 100 µg/mL	0.01 µg/mL (≈ 0.0137 µM)	0.39 µg/mL (≈ 0.536 µM)	0.1 µg/mL (≈ 0.137 µM)	0.05 µg/mL (≈ 0.0687 µM)	0.39 µg/mL (≈ 0.536 µM)	> 100 µg/mL	> 100 µg/mL	0.39 µg/mL (≈ 0.536 µM)	> 100 µg/mL	100 µg/mL (≈ 137 µM)	> 100 µg/mL	> 100 µg/mL	> 100 µg/mL	> 100 µg/mL	0.39 µg/mL (≈ 0.536 µM)	> 100 µg/mL	MIC [21]: 0.39 µg/mL (≈ 0.536 µM); MIC [22]: > 100 µg/mL; MIC [23]: > 100 µg/mL; MIC [24]: 0.01 µg/mL (≈ 0.0137 µM); MIC [25]: > 100 µg/mL; MIC [26]: 0.39 µg/mL (≈ 0.536 µM); MIC [27]: > 100 µg/mL; MIC [28]: 3.1 µg/mL (≈ 4.26 µM); MIC [29]: > 100 µg/mL; MIC [30]: 0.02 µg/mL (≈ 0.0275 µM); MIC [31]: > 100 µg/mL
CC[C@H]1OC(=O)[C@H](C)C(=O)[C@H](C)[C@@H](O[C@@H]2O[C@H](C)C[C@H](N(C)C)[C@H]2O)[C@](C)(OC)C[C@@H](C)C2=N[C@H](COCc3ccncc3)CN3C(=O)O[C@@]1(C)[C@H]3[C@H]2C [Example 77]	> 100 µg/mL	100 µg/mL (≈ 132 µM)	0.39 µg/mL (≈ 0.514 µM)	50 µg/mL (≈ 65.9 µM)	0.01 µg/mL (≈ 0.0132 µM)	0.39 µg/mL (≈ 0.514 µM)	0.05 µg/mL (≈ 0.0659 µM)	0.05 µg/mL (≈ 0.0659 µM)	0.39 µg/mL (≈ 0.514 µM)	> 100 µg/mL	> 100 µg/mL	0.39 µg/mL (≈ 0.514 µM)	> 100 µg/mL	> 100 µg/mL	> 100 µg/mL	> 100 µg/mL	100 µg/mL (≈ 132 µM)	> 100 µg/mL	0.2 µg/mL (≈ 0.264 µM)	> 100 µg/mL	MIC [21]: 0.39 µg/mL (≈ 0.514 µM); MIC [22]: > 100 µg/mL; MIC [23]: > 100 µg/mL; MIC [24]: < 0.005 µg/mL; MIC [25]: > 100 µg/mL; MIC [26]: 0.39 µg/mL (≈ 0.514 µM); MIC [27]: > 100 µg/mL; MIC [32]: 0.39 µg/mL (≈ 0.514 µM); MIC [28]: 1.56 µg/mL (≈ 2.06 µM); MIC [29]: 0.78 µg/mL (≈ 1.03 µM); MIC [30]: ≤ 0.005 µg/mL; MIC [31]: > 100 µg/mL
